The text below walks through data of patent US4948813A, “Benzylketone phospholipase A2 inhibitors” (E. I. Du Pont de Nemours and Company, priority 1989, dated 1990).

Structures can show the parent of a compound that is named as a salt.

The test system of this assay is inflammation induced by tetradecanoyl phorbol acetate (TPA). The assay is described as follows: TPA Inflammation Inhibition Test. Format: in vivo, mice. The note with it: mouse ear edema, topical, 100 mg/ear, four hours. How it is done: The TPA model mimics many of the inflammatory change which occur in human skin diseases such as psoriasis, since elevated levels of inflammatory arachidonic acid metabolites are found and an influx of polymorphonuclear leukocytes is observed. The test procedure used to evaluate the compounds of Formula (I) is as follows: the test compound (100 mg/ear) is applied to both ears of mice in an appropriate vehicle, such as acetone, and then the inflammatory stimulus (TPA) is applied to the right ear. Four hours later, the edema is measured by removing standard size discs from the ears using a biopsy punch. A control group of animals receives TPA in vehicle applied to the right ear, and vehicle alone to the left ear.
`COc1ccc(CNCCC(=O)c2ccc(F)cc2)c2ccccc12` [Example 7, 1-(4-Fluorophenyl)-3-[(4-methoxy-1-naphthaIenyl)-methylamino]-1-propanone Hydrochloride]: the “% Inhibition of Control Swelling” value worked out at 21%. For the compound `CCCCCCC(C)OCCCC(=O)c1ccc(F)cc1` (stereo not drawn) [Example 37, 1-(4-Fluorophenyl)-4-(d-1-methylheptyloxy)-1-butanone], the “% Inhibition of Control Swelling” value was 20%. Regarding `CC(C)c1ccc2c(c1)CCC1C(C)(CNCCC(=O)c3ccc(F)cc3)CCCC21C.Cl` (stereo not shown) [Example 52, 3-([1,4a-Dimethyl-1,2,3,4,4a,9,10,10a-octahydro-7-(1-methylethyl)-1-phenanthrenyl]methylamino)-1-(4-fluorophenyl)-1-propanone Hydrochloride], the “% Inhibition of Control Swelling” value is reported as 40%. The result for `CC(C)c1ccc2c(c1)CCC1C(C)(CNCCC(=O)c3ccccc3)CCCC21C` (stereo not shown) [Example 21, 1-Phenyl-3-([4a-dimethyl-7-(1-methylethyl)-1,2,3,4,4a,9,10,10aoctahydro-1-phenanthren-1-yl]-methylamino)-1-propanone 4-Methylbenzenesulfonate] reads 31%.
